Reference: ChEMBL document CHEMBL1944631, “Solid-state NMR analysis of calcium and d-mannose binding of BMY-28864, a water-soluble analogue of pradimicin A” (Bioorg Med Chem Lett, 2012)
≈ marks a conversion by molar mass, not a printed value. Calls of active or inactive are those of the source. No cut-off for these calls is given here.

What was measured:
[1] = Solubility of the compound in phosphate buffered saline at pH 7.4; type: physicochemical
[2] = Binding affinity to methyl alpha-D-mannopyranoside at -129 ppm by Solid-state CP/MAS 113Cd NMR spectroscopy
[3] = Binding affinity to [13C6]-methyl alpha-D-mannopyranoside by 2-DDARR in presence of Ca2+ relative to TMS
[4] = Binding affinity to methyl alpha-D-mannopyranoside at -135 ppm by Solid-state CP/MAS 113Cd NMR spectroscopy

| Structure (SMILES) | solubility [1] | Activity [2] | Activity [3] | Activity [4] |
| --- | --- | --- | --- | --- |
| CN[C@@H]1[C@H](O[C@@H]2OC[C@@H](O)[C@H](O)[C@H]2O)[C@@H](O)[C@H](O[C@H]2c3cc(C)c(C(=O)N[C@H](CO)C(=O)O)c(O)c3-c3c(cc4c(c3O)C(=O)c3cc(OC)cc(O)c3C4=O)[C@@H]2O)O[C@@H]1C | 260 µg/mL (≈ 303 µM) | – | – | – |
| COc1cc(O)c2c(c1)C(=O)c1c(cc3c(c1O)-c1c(cc(C)c(C(=O)N[C@H](CO)C(=O)O)c1O)[C@H](O[C@@H]1O[C@H](C)[C@H](N(C)C)[C@H](O[C@@H]4OC[C@@H](O)[C@H](O)[C@H]4O)[C@H]1O)[C@H]3O)C2=O | > 20000 µg/mL | Active | Active | – |
| CN[C@@H]1[C@H](O[C@@H]2OC[C@@H](O)[C@H](O)[C@H]2O)[C@@H](O)[C@H](O[C@H]2c3cc(C)c(C(=O)N[C@H](C)C(=O)O)c(O)c3-c3c(cc4c(c3O)C(=O)c3cc(OC)cc(O)c3C4=O)[C@@H]2O)O[C@@H]1C [PRADIMICIN A] | 20 µg/mL (≈ 23.8 µM) | – | Active | Active |
